How the values were obtained:
Assay in all cases: relative viability (nuclei count vs DMSO), 5 days (fraction); higher = more cells survive
[1] = compound: Cc1ccc(C(=O)N(CCCN)[C@@H](c2nc3cc(Cl)ccc3c(=O)n2Cc2ccccc2)C(C)C)cc1 [Ispinesib] + C[C@@H](Oc1cc(-c2cnn(C3CCNCC3)c2)cnc1N)c1c(Cl)ccc(F)c1Cl [Crizotinib] (partner 1 µM)
Procedure, shortened: (§1)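 Five library-drug doses in √10 steps were combined with a fixed anchor-drug dose, or a single drug was given alone, by pin tool to lung cancer cell lines in 1536-well plates the day after seeding. Nuclei were stained and counted after 5 days. Relative viability is the nuclei count in treated wells over that in vehicle wells, taken as the median of duplicate plates.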

[2] = compound: C[C@]1(O)C[C@@H](c2nc(-c3ccc4ccc(-c5ccccc5)nc4c3)c3c(N)nccn32)C1 [Linsitinib] + N=C(N)NC(=N)NCCc1ccccc1 [Phenformin] (partner 250 µM)
Procedure, shortened: as §1

[3] = compound: Cc1ccc(C(=O)N(CCCN)[C@@H](c2nc3cc(Cl)ccc3c(=O)n2Cc2ccccc2)C(C)C)cc1 [Ispinesib] + O=C(CCCCCCC(=O)Nc1ccccc1)NO [Vorinostat] (partner 1 µM)
Procedure, shortened: as §1

[4] = compound: C[C@]1(O)C[C@@H](c2nc(-c3ccc4ccc(-c5ccccc5)nc4c3)c3c(N)nccn32)C1 [Linsitinib] + Cc1nc(NC(=O)N2CCC[C@H]2C(N)=O)sc1-c1ccnc(C(C)(C)C(F)(F)F)c1 [Alpelisib] (partner 2 µM)
Procedure, shortened: as §1

Row | Cell Line | relative viability ([1]; first compound 0.001 µM) | relative viability ([1]; first compound 0.003162 µM) | relative viability ([1]; first compound 0.01 µM) | relative viability ([1]; first compound 0.1 µM) | relative viability ([2]; first compound 0.01 µM) | relative viability ([2]; first compound 0.03162 µM) | relative viability ([2]; first compound 0.1 µM) | relative viability ([2]; first compound 0.3162 µM) | relative viability ([2]; first compound 1 µM) | relative viability ([3]; first compound 0.001 µM) | relative viability ([3]; first compound 0.003162 µM) | relative viability ([3]; first compound 0.01 µM) | relative viability ([3]; first compound 0.03162 µM) | relative viability ([3]; first compound 0.1 µM) | relative viability ([4]; first compound 0.01 µM) | relative viability ([4]; first compound 0.03162 µM) | relative viability ([4]; first compound 0.1 µM) | relative viability ([4]; first compound 0.3162 µM) | relative viability ([4]; first compound 1 µM) | relative viability ([1]; first compound 0.03162 µM)
1 | HCC-78 | 0.348 | 0.341 | 0.438 | 0.272 | 0.551 | 0.717 | 0.565 | 0.701 | 0.621 | 0.422 | 0.49 | 0.459 | 0.404 | 0.414 | 0.413 | 0.439 | 0.26 | 0.312 | 0.261 | –
2 | HCC-366 | 0.6 | 0.563 | 1.22 | 0.0887 | 0.612 | 0.604 | 0.598 | 0.574 | 0.377 | 0.353 | 0.512 | 0.351 | 0.216 | 0.0545 | 0.416 | 0.239 | 0.446 | 0.242 | 0.201 | 0.848
3 | HCC-827 | 0.965 | 0.91 | 0.957 | 0.69 | 0.423 | 0.433 | 0.418 | – | 0.385 | 0.827 | 0.999 | 0.861 | 0.649 | 0.696 | 0.995 | 1.02 | 0.967 | – | 0.915 | 0.918
4 | HOP-62 | 0.966 | 1.04 | 0.792 | 0.918 | 0.663 | 0.718 | 0.677 | – | 0.61 | 0.685 | 0.631 | 0.949 | 0.667 | 0.25 | 0.862 | 1.09 | 0.949 | – | 0.933 | 0.976
5 | IA-LM | 0.897 | 0.912 | 0.7 | 0.199 | – | – | – | – | – | 0.889 | 0.863 | 1.01 | 1.23 | 0.369 | 0.829 | 0.809 | 0.743 | 0.387 | 0.51 | 0.131
6 | LC-2-ad | 0.447 | 0.317 | 0.439 | 0.283 | 0.606 | 0.572 | 0.558 | 0.332 | 0.353 | 0.718 | 0.697 | 0.765 | 0.321 | 0.19 | 0.84 | 0.73 | 0.822 | 0.633 | 0.733 | 0.368
7 | LCLC-97TM1 | 0.291 | 0.381 | 0.508 | 0.175 | 0.41 | 0.432 | 0.43 | 0.194 | 0.205 | 0.645 | 0.847 | 1.04 | 0.289 | 0.0855 | 0.237 | 0.267 | 0.189 | 0.215 | 0.206 | 0.236
8 | LCLC-103H | 1.08 | 1.2 | 1.08 | 0.929 | 0.397 | 0.344 | 0.324 | 0.327 | 0.303 | 0.827 | 0.86 | 0.845 | 0.515 | 0.352 | 0.896 | 0.943 | 0.975 | 1.09 | 0.942 | 0.999
9 | LK-2 | 0.169 | 0.269 | 0.213 | 0.333 | 0.41 | 0.498 | 0.515 | 0.201 | 0.187 | 0.247 | 0.348 | 0.343 | 0.195 | 0.24 | 1.04 | 1.12 | 1.33 | 0.804 | 1.11 | 0.21
10 | LOU-NH91 | 0.764 | 0.744 | 0.706 | 0.536 | 0.739 | 0.714 | 0.722 | 0.651 | 0.632 | 0.91 | 1.04 | 0.939 | 0.247 | 0.236 | 0.743 | 0.656 | 0.7 | 0.76 | 0.602 | 0.671
11 | NCI-H522 | – | – | – | – | 0.589 | 0.662 | 0.567 | – | 0.613 | 0.824 | 0.897 | 0.803 | 0.592 | 0.351 | – | – | – | – | – | –
12 | NCI-H1299 | 1.01 | 0.977 | 1.02 | 0.469 | – | – | – | – | – | – | – | – | – | – | 1.05 | 1.07 | 1.12 | 1.01 | 1.04 | 0.805
13 | NCI-H1395 | – | – | – | – | 0.442 | 0.462 | 0.454 | 0.468 | 0.423 | 0.754 | 0.871 | 0.385 | 0.386 | 0.421 | 0.945 | 0.915 | 1.24 | 0.962 | 0.957 | –
14 | NCI-H1563 | 0.826 | 0.776 | 0.782 | 0.781 | 0.68 | 0.647 | 0.658 | 0.834 | 0.621 | – | – | – | – | – | 0.909 | 0.924 | 0.85 | 0.861 | 0.928 | 0.949
15 | NCI-H1623 | – | – | – | – | 0.628 | 0.618 | 0.581 | – | 0.519 | – | – | – | – | – | – | – | – | – | – | –
16 | NCI-H1648 | – | – | – | – | – | – | – | – | – | 0.594 | 0.682 | 0.422 | 0.634 | 0.428 | – | – | – | – | – | –
17 | NCI-H1650 | 0.91 | 1.05 | 0.769 | 0.325 | 0.477 | 0.406 | 0.489 | 0.272 | 0.254 | 0.779 | 0.535 | 0.521 | 0.416 | 0.234 | – | – | – | – | – | 0.223
18 | NCI-H1703 | 0.811 | 0.454 | 0.185 | 0.285 | – | – | – | – | – | – | – | – | – | – | 0.363 | – | 0.346 | 0.227 | 0.219 | 0.0885
19 | NCI-H1792 | 1.26 | 1.16 | 0.863 | 0.32 | 0.453 | 0.419 | 0.29 | 0.166 | 0.073 | – | – | – | – | – | 0.803 | 0.751 | 0.615 | 0.606 | 0.538 | 0.736
20 | NCI-H1793 | – | – | – | – | 0.362 | 0.373 | 0.369 | 0.271 | 0.282 | 0.702 | 0.881 | 0.925 | 0.38 | 0.318 | 0.71 | 0.734 | 0.738 | 0.615 | 0.738 | –
21 | NCI-H2342 | – | – | – | – | 0.46 | 0.584 | 0.527 | 0.511 | 0.488 | 0.664 | 0.724 | 0.797 | 0.75 | 0.554 | – | – | – | – | – | –
22 | SW 900 | – | – | – | – | 0.701 | 0.753 | 0.553 | 0.433 | 0.37 | 0.523 | 0.606 | 0.478 | 0.449 | 0.294 | – | – | – | – | – | –

— the supplement of paper PMC10307832
